Laboratory results as given in patent publication US4335249A, “Herbicidal diphenyl ethers, sulfides, sulfoxides and sulfones” (Rohm and Haas Company, priority 1976, dated 1982).

How the values were obtained:
Assay type in all cases: in vivo
marigold (Tagetes spp.) [1] = experiment: Preemergence herbicidal activity, marigold
How it was run: (§1)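 Pre: flats treated immediately post-planting. Post: treated 2 wk after germination. Spray = acetone/water solution, 50 gal/acre carrier, rate in lb/A. Read ~2 wk after treatment as average % plants killed.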

[2] = tested on: barnyardgrass (Echinochloa crusgalli); experiment: Postemergence herbicidal activity, barnyardgrass; settings: Post
How it was run: (§2)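 Acetone solution diluted w/ water; spray, carrier 50 gal/acre equivalent; rate in lb/A. Pre: flats sprayed right after sowing. Post: sprayed 2 wk after germination. Weed control scored.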

[3] = tested on: downybrome (Bromus tectorum); experiment: Postemergence herbicidal activity, downybrome; settings: Post
How it was run: as §1

[4] = tested on: downybrome (Bromus tectorum); experiment: Preemergence herbicidal activity, downybrome; settings: Pre
How it was run: as §1

[5] = tested on: velvetleaf (Abutilon theophrasti); experiment: Preemergence herbicidal activity, velvetleaf; settings: Pre
How it was run: as §1

[6] = tested on: yellow nutsedge (Cyperus esculentus); experiment: Postemergence herbicidal activity, yellow nutsedge
How it was run: as §1

[7] = tested on: tomato (Lycopersicon esculentum); experiment: Preemergence herbicidal activity, tomato; settings: Pre
How it was run: as §1

[8] = tested on: morningglory (Ipomoca spp.); experiment: Preemergence herbicidal activity, morningglory
How it was run: as §1

[9] = tested on: morningglory (Ipomoca spp.); experiment: Postemergence herbicidal activity, morningglory
How it was run: as §1

[10] = tested on: velvetleaf (Abutilon theophrasti); experiment: Postemergence herbicidal activity, velvetleaf
How it was run: as §2

wild oats (Avena fatua) [11] = experiment: Postemergence herbicidal activity, wild oats; settings: Post
How it was run: as §1

[12] = tested on: tomato (Lycopersicon esculentum); experiment: Postemergence herbicidal activity, tomato; settings: Post
How it was run: as §1

foxtail (Setaria spp.) [13] = experiment: Postemergence herbicidal activity, foxtail; settings: Post
How it was run: as §1

[14] = tested on: yellow nutsedge (Cyperus esculentus); experiment: Preemergence herbicidal activity, yellow nutsedge
How it was run: as §1

[15] = tested on: cocklebur (Xanthium pensylvanicum); experiment: Postemergence herbicidal activity, cocklebur
How it was run: as §1

[16] = tested on: barnyardgrass (Echinochloa crusgalli); experiment: Preemergence herbicidal activity, barnyardgrass; settings: Pre
How it was run: as §2

marigold (Tagetes spp.) [17] = experiment: Postemergence herbicidal activity, marigold
How it was run: as §1

[18] = tested on: cocklebur (Xanthium pensylvanicum); experiment: Preemergence herbicidal activity, cocklebur
How it was run: as §1

wild oats (Avena fatua) [19] = experiment: Preemergence herbicidal activity, wild oats; settings: Pre
How it was run: as §1

foxtail (Setaria spp.) [20] = experiment: Preemergence herbicidal activity, foxtail; settings: Pre
How it was run: as §1

[21] = Echinochloa crus-galli, post-emergence, 336 h, 2 lb/A
[22] = Bromus tectorum, post-emergence, 336 h, 2 lb/A
[23] = Bromus tectorum, pre-emergence, 336 h, 2 lb/A
[24] = Abutilon theophrasti, pre-emergence, 336 h, 2 lb/A
[25] = Cyperus, post-emergence, 336 h, 2 lb/A
[26] = Solanum lycopersicum, pre-emergence, 336 h, 2 lb/A
[27] = Ipomoea, pre-emergence, 336 h, 2 lb/A
[28] = Ipomoea, post-emergence, 336 h, 2 lb/A
[29] = Abutilon theophrasti, post-emergence, 336 h, 2 lb/A
[30] = Avena fatua, post-emergence, 336 h, 2 lb/A, read-out: % control, Wild oat
[31] = Solanum lycopersicum, post-emergence, 336 h, 2 lb/A
[32] = Setaria, post-emergence, 336 h, 2 lb/A
[33] = Cyperus, pre-emergence, 336 h, 2 lb/A
[34] = Xanthium strumarium, post-emergence, 336 h, 2 lb/A
[35] = Echinochloa crus-galli, pre-emergence, 336 h, 2 lb/A
[36] = Xanthium strumarium, pre-emergence, 336 h, 2 lb/A
[37] = Avena fatua, pre-emergence, 336 h, 2 lb/A, read-out: % control, Wild oat
[38] = Setaria, pre-emergence, 336 h, 2 lb/A

C=CCOC(=O)C(C)Oc1ccc(Oc2ccc(C(F)(F)F)cc2Cl)cc1 (centres unmarked) [Example 24]
pest or weed control at 2241.7 g/ha (marigold (Tagetes spp.) [1]; pre-emergence, 336 h, 2 lb/A): 0%
pest or weed control at 2241.7 g/ha [2, 21]: 100%
pest or weed control at 2241.7 g/ha [3, 22]: 100%
pest or weed control at 2241.7 g/ha [4, 23]: 99%
pest or weed control at 2241.7 g/ha [5, 24]: 0%
pest or weed control at 2241.7 g/ha [6, 25]: 0%
pest or weed control at 2241.7 g/ha [7, 26]: 0%
pest or weed control at 2241.7 g/ha [8, 27]: 0%
pest or weed control at 2241.7 g/ha [9, 28]: 20%
pest or weed control at 2241.7 g/ha [10, 29]: 80%
pest or weed control at 2241.7 g/ha (wild oats (Avena fatua) [11]; [30]): 100%
pest or weed control at 2241.7 g/ha [12, 31]: 95%
pest or weed control at 2241.7 g/ha (foxtail (Setaria spp.) [13]; [32]): 100%
pest or weed control at 2241.7 g/ha [14, 33]: 30%
pest or weed control at 2241.7 g/ha [15, 34]: 20%
pest or weed control at 2241.7 g/ha [16, 35]: 100%
pest or weed control at 2241.7 g/ha (marigold (Tagetes spp.) [17]; post-emergence, 336 h, 2 lb/A): 50%
pest or weed control at 2241.7 g/ha [18, 36]: 100%
pest or weed control at 2241.7 g/ha (wild oats (Avena fatua) [19]; [37]): 80%
pest or weed control at 2241.7 g/ha (foxtail (Setaria spp.) [20]; [38]): 100%

CC(Oc1ccc(Oc2ccc(C(F)(F)F)cc2Cl)cc1)C(=O)O (centres unmarked) [Example 14, Sodium 2-[4-(2-chloro-4-trifluoromethylphenoxy)phenoxy] propionate]
% control, Marigold (marigold (Tagetes spp.) [1]; Pre, 2 lb/A): 0%
% control, Barnyardgrass ([2]; 2 lb/A): 100%
% control, Downybrome ([3]; 2 lb/A): 20%
% control, Downybrome ([4]; 2 lb/A): 50%
% control, Velvetleaf ([5]; 2 lb/A): 0%
% control, Nutsedge ([6]; Post, 2 lb/A): 0%
% control, Tomato ([7]; 2 lb/A): 0%
% control, Morningglory ([8]; Pre, 2 lb/A): 0%
% control, Morningglory ([9]; Post, 2 lb/A): 0%
% control, Velvetleaf ([10]; Post, 2 lb/A): 0%
% control, Wild oat (wild oats (Avena fatua) [11]; 2 lb/A): 80%
% control, Tomato ([12]; 2 lb/A): 0%
% control, Foxtail (foxtail (Setaria spp.) [13]; 2 lb/A): 95%
% control, Nutsedge ([14]; Pre, 2 lb/A): 0%
% control, Cocklebur ([15]; Post, 2 lb/A): 0%
% control, Barnyardgrass ([16]; 2 lb/A): 100%
% control, Marigold (marigold (Tagetes spp.) [17]; Post, 2 lb/A): 0%
% control, Cocklebur ([18]; Pre, 2 lb/A): 0%
% control, Wild oat (wild oats (Avena fatua) [19]; 2 lb/A): 40%
% control, Foxtail (foxtail (Setaria spp.) [20]; 2 lb/A): 100%

CCOC(=O)C(C)Oc1ccc(Sc2cccc(C(F)(F)F)c2)cc1 (centres unmarked) [Example 45, Ethyl 2-[4-(3-trifluoromethylphenylthio)phenoxy] propionate]
pest or weed control at 8966.8 g/ha (marigold (Tagetes spp.) [1]; pre-emergence, 336 h, 8 lb/A): 0%
pest or weed control at 4483.4 g/ha ([2]; Echinochloa crus-galli, post-emergence, 336 h, 4 lb/A): 20%
pest or weed control at 4483.4 g/ha ([3]; Bromus tectorum, post-emergence, 336 h, 4 lb/A): 20%
pest or weed control at 8966.8 g/ha ([4]; Bromus tectorum, pre-emergence, 336 h, 8 lb/A): 0%
pest or weed control at 8966.8 g/ha ([5]; Abutilon theophrasti, pre-emergence, 336 h, 8 lb/A): 0%
pest or weed control at 4483.4 g/ha ([6]; Cyperus, post-emergence, 336 h, 4 lb/A): 0%
pest or weed control at 8966.8 g/ha ([7]; Solanum lycopersicum, pre-emergence, 336 h, 8 lb/A): 0%
pest or weed control at 8966.8 g/ha ([8]; Ipomoea, pre-emergence, 336 h, 8 lb/A): 0%
pest or weed control at 4483.4 g/ha ([9]; Ipomoea, post-emergence, 336 h, 4 lb/A): 0%
pest or weed control at 4483.4 g/ha ([10]; Abutilon theophrasti, post-emergence, 336 h, 4 lb/A): 0%
pest or weed control at 4483.4 g/ha (wild oats (Avena fatua) [11]; Avena fatua, post-emergence, 336 h, 4 lb/A, read-out: % control, Wild oat): 20%
pest or weed control at 4483.4 g/ha ([12]; Solanum lycopersicum, post-emergence, 336 h, 4 lb/A): 80%
pest or weed control at 4483.4 g/ha (foxtail (Setaria spp.) [13]; Setaria, post-emergence, 336 h, 4 lb/A): 30%
pest or weed control at 8966.8 g/ha ([14]; Cyperus, pre-emergence, 336 h, 8 lb/A): 0%
pest or weed control at 4483.4 g/ha ([15]; Xanthium strumarium, post-emergence, 336 h, 4 lb/A): 0%
pest or weed control at 8966.8 g/ha ([16]; Echinochloa crus-galli, pre-emergence, 336 h, 8 lb/A): 0%
pest or weed control at 4483.4 g/ha (marigold (Tagetes spp.) [17]; post-emergence, 336 h, 4 lb/A): 0%
pest or weed control at 8966.8 g/ha ([18]; Xanthium strumarium, pre-emergence, 336 h, 8 lb/A): 0%
pest or weed control at 8966.8 g/ha (wild oats (Avena fatua) [19]; Avena fatua, pre-emergence, 336 h, 8 lb/A, read-out: % control, Wild oat): 0%
pest or weed control at 8966.8 g/ha (foxtail (Setaria spp.) [20]; Setaria, pre-emergence, 336 h, 8 lb/A): 0%

CCOC(=O)CCC(C)Oc1ccc(Oc2ccc(C(F)(F)F)cc2)cc1 (centres unmarked) [Example 39]
pest or weed control at 2241.7 g/ha (marigold (Tagetes spp.) [1]; pre-emergence, 336 h, 2 lb/A): 0%
pest or weed control at 2241.7 g/ha [2, 21]: 100%
pest or weed control at 2241.7 g/ha [3, 22]: 100%
pest or weed control at 2241.7 g/ha [4, 23]: 60%
pest or weed control at 2241.7 g/ha [5, 24]: 0%
pest or weed control at 2241.7 g/ha [6, 25]: 0%
pest or weed control at 2241.7 g/ha [7, 26]: 0%
pest or weed control at 2241.7 g/ha [8, 27]: 0%
pest or weed control at 2241.7 g/ha [9, 28]: 40%
pest or weed control at 2241.7 g/ha [10, 29]: 0%
pest or weed control at 2241.7 g/ha (wild oats (Avena fatua) [11]; [30]): 100%
pest or weed control at 2241.7 g/ha [12, 31]: 20%
pest or weed control at 2241.7 g/ha (foxtail (Setaria spp.) [13]; [32]): 100%
pest or weed control at 2241.7 g/ha [14, 33]: 0%
pest or weed control at 2241.7 g/ha [15, 34]: 60%
pest or weed control at 2241.7 g/ha [16, 35]: 99%
pest or weed control at 2241.7 g/ha (marigold (Tagetes spp.) [17]; post-emergence, 336 h, 2 lb/A): 0%
pest or weed control at 2241.7 g/ha [18, 36]: 0%
pest or weed control at 2241.7 g/ha (wild oats (Avena fatua) [19]; [37]): 50%
pest or weed control at 2241.7 g/ha (foxtail (Setaria spp.) [20]; [38]): 99%
